Laboratory results: patent publication US6683162B2, “Targeted alpha particle therapy using actinium-255 conjugates” (Sloan Kettering Institute of Cancer Research, priority 2000, dated 2004)

Legend:
[1] = Toxicity of [225Ac]DOTA-HuM195 i.v. in cynamologous monkeys; format: in vivo, cynamologous monkey; conditions: 9 months out
Protocol: Two male cynamologous monkeys (3-5 kg) were injected i.v. 9 months ago with an initial 0.002-0.005 mCi dose of [225Ac]DOTA-HuM195 per monkey and then 6 weeks later with a 0.017-0.020 mCi dose of [225Ac]DOTA-HuM195. Animals are followed by serial blood sampling and observation of activity and appearance as a function of time.

HL60 cells = experiment: In vitro internalization of 225Ac-HuM195-DOTA; format: cell-based, human; conditions: 37° C., in 5 hours
Protocol: The internalizing ability of the purified ^225Ac-HuM195-DOTA was tested with HL60 cells. The cells were washed twice with complete media and then incubated for 20 min on ice in complete media containing 2% rabbit serum. The cells were washed twice with ice cold complete media and then resuspended in 5 ml of complete media at a density of 5×10^6 cells/ml. After placing the cell suspension on ice purified ^225Ac-HuM195-DOTA (15 ng) was added. After mixing a sample of the sample of the cell suspension as taken and the rest of the cell suspension was placed into a 37° C. incubator. At various time points samples of the cell suspensions were taken. The samples were centrifuged, the supernatant removed and the cells washed twice with ice cold PBS. Stripping buffer (50 mM glycine, 150 mM NaCl, pH 2.8) was added to the cells and allowed to incubate for 10 min at room temperature. The cells were centrifuged and the supernatant drawn off and saved for counting. The cell pellet was washed once with PBS and both the cell pellet and wash were saved for counting.

[2] = system: antigen positive cells (HL60); experiment: Cell based immunoreactivity assay, antigen positive cells; format: binding, human; conditions: HL60, antigen excess, on ice
Protocol: (§1) A cell based immunoreactivity assay (binding of labeled antibody to antigen excess) was used to determine the percentage of HuM195 that retained its immunoreactivity after conjugation and purification. The assay was conducted with antigen positive cells (HL60, available from American Tissue Culture Collection [ATCC]) and antigen negative cells (Daudi, ATCC).
(§2) The cells were centrifuged, the supernatant removed and the cells resuspended to a density of 10^8 cells/ml in 2% w/v bovine serum albumin in phosphate buffered saline, pH 7.2 (PBS). Aliquots of cell suspension ([…]) were transferred to microcentrifuge tubes placed on ice to which purified ^225Ac-HuM195-DOTA (3 ng) was added. The cell suspensions were incubated for 30 min, centrifuged and the supernatant containing any unbound ^225Ac-HuM195-DOTA was transferred to a second microcentrifuge tube of cell suspension. The second tube was incubated on ice for 30 min. The first cell pellets were washed with PBS and the cells and washes saved for γ emission counting. The second set of cell suspensions were centrifuged, the supernatant removed and the pellets were washed with PBS. The set of supernate, cell pellets and washes were saved for counting. The percentage of radioactivity that was associated with the cells was then determined.

[3] = system: human HL60 leukemia cells; experiment: In vitro cytotoxicity (LD50), HL60, tritiated thymidine incorporation; format: cell-based
Protocol: The potency and specificity of 225Ac-HuM195-DOTA was then evaluated in-vitro as a function of specific activity and activity concentration (FIG. 6). A suspension of HL60 cells were washed twice with complete media and then dispensed into a 96 well cell culture plate in complete media supplemented with 2% human serum. The volume was 100 μl and the cells were at a density of 5×10^5 cells/ml. Next a serial dilultion of purified ^225Ac-HuM195-DOTA was added to the wells. The diluent was complete media and volume added was 100 μl. The starting activity was 10 nCi/ml, which was diluted 5-fold for each subsequent tube. […] The cells were incubated for 2 days at 37° C., following which tritiated thymidine was added (0.5 pC, in 50 il complete media/well). The cells were incubated at 37° C. for an additional 5 h, then harvested using a Combi Cell Harvestor (Skatron Instruments). Cell viability was determined by analyzing the degree of tritiated thymidine incorporated into the DNA of the treated cells relative to control cells.
The potency and specificity of [225Ac]IgG for killing single cancer cells is determined using 5E4 cells in 0.2 mL per well in 96 well plates. Serial dilutions of [225Ac]IgG are added (triplicate) to the cells to yield final activity in the wells ranging from 74 kBl/mL to 37E-6 kB q/mL. Non-specific killing is measured after target cells are blocked with a 100-10000-fold excess of unlabeled IgG before plating and subsequent addition of [225Ac]IgG.

[4] = system: antigen negative cells (Daudi); experiment: Cell based immunoreactivity assay, antigen negative cells; format: binding; conditions: on ice
Protocol: as §1, §2

Daudi lymphoma cells = experiment: In vivo efficacy against disseminated Daudi lymphoma; parameters: species or system mouse; conditions: irrelevant control, day 1
Protocol: Daudi lymphoma cells are disseminated into 8-12 week old female Scid mice via an intravenous (i.v.) injection of 5E6 Daudi tumor cells in the tail vein; mice experience a 100% tumor take rate in the model (20). In this lymphoma therapy experiment mice are treated 1 day post-tumor dissemination via intravenous injection. Animals are monitored for signs of illness and hind leg paralysis or inability to breathe or ambulate at which time they are sacrificed.
In the first experiment with this disseminated model, mice are treated 1 day post-tumor dissemination with a single dose of labeled specific [225Ac]B4 at three different dose levels, irrelevant control [225Ac]HuM195 at two dose levels, or a mass of unlabeled B4 matching the antibody mass dose administered in the highest dose level radiolabeled groups. Control groups receiving the irrelevant [225Ac]HuM195 have median survival times from xenograft of 43 days and 36 days. Mice receiving 0.003 mg unlabeled B4 per mouse have a median survival time of 57 days from xenograft. The mice receiving a single injection of [225Ac]B4 show dose-related increases in median survival times from xenograft to 165, 137 and 99 days, respectively. The dose response of [225Ac]B4 is significant with P=0.05. […]

225Ac-HuM195-DOTA
evidence of toxicity ([1]; i.v. 0.002-0.005 mCi then 0.017-0.020 mCi 6 weeks later): no evidence of toxicity
hepatic, renal and hematopoietic function ([1]; i.v.): did not change
activity internalized (HL60 cells): 50%
activity associated with the cells (immunoreactivity) [2]: 74%
LD50 ([3]; HL60 (non-specific), excess unlabeled antibody, S.A. 0.089 GBq/g): 185.0 Bq/mL
LD50 ([3]; HL60 (specific), S.A. 8.9 GBq/g): 0.3 Bq/mL
LD50 ([3]; HL60, Ac-225 construct, S.A. 0.24 Ci/g): 8 pCi/mL
LD50 ([3]; HL60, specific activity 0.094 nCi/ng, 2 days at 37° C. then tritiated thymidine 5 h): about 1.3 nCi/ml
activity retained by the cells (immunoreactivity) [4]: 2%
median survival time from xenograft (Daudi lymphoma cells; first-named of two dose levels (5550 Bq per FIG. 8A, order assumed)): 43 days
median survival time from xenograft (Daudi lymphoma cells; second-named of two dose levels (1850 Bq per FIG. 8A, order assumed)): 36 days
